Experiment [1] is described as follows: Food/water intake and body weight in 24-hour food deprived rats, oral gavage (PO). Conditions: for Cumulative Food Intake (g) (8 hr post administration) / Body Weight Gain (g) (6 hr post administration) / Cumulative Water Intake (g) (6 hr post administration): 100 μmol/kg PO, second assay, Table D; for Cumulative Food Intake (g) (8 hr post administration): vehicle 14.0; for Body Weight Gain (g) (6 hr post administration) / Cumulative Water Intake (g) (6 hr post administration): vehicle 19.25; for body weight gain (FIG. 10C): vehicle about 19.5 grams. Type of experiment: in vivo, rat. The method, then: Based upon the in vivo data developed, oral bioavailability of compound ARE112 was determined. The compound was administered by oral gavage at doses ranging from 6.75 to 54 mg/kg. The data presented in FIGS. 9A and 9B support the conclusion that oral administration of ARE112 also decreases food intake in both food-deprived and non-food deprived rats. […] In FIG. 9A, rats were deprived 24 hours prior to oral administration of the compound. In this assay, the vehicle-treated rats at 2.5 hours consumed […] of food while injected rats; particularly rats administered with 27 and 54 mg/kg of ARE 112, ate about 6 and 4 grams, respectively. […] (See, FIG. 9A).
Several other GPR6 inverse agonists were also assessed under 24-hour food deprived conditions, with PO administration. The analogs listed below were tested at 200 μmol/kg, which is equivalent to 54 mg/kg. In addition, ARE114 was also assessed at […]. Data are summarized below in Table C:
In a second assay, tested under the same conditions, several other analogs were assessed at 100 μmol/kg.
In FIG. 10, rats were deprived 24 hours prior to oral administration of the compound. In this assay, analogs ARE130, ARE135, ARE136, and ARE140, were administered at a dose of 100 μmol/kg. Three analogs, particularly, ARE130, ARE136 and ARE140 evidenced a slow intake of food (e.g., about 1 to 1.5 grams every two hours) over an eight hour period post-administration; while the vehicle rat consumed about 2 to 2.5 grams food every two hours. Similar to the vehicle rat, analog ARE135, an opened ring structure, evidenced that over an eight hour period post-administration the rats increasingly consumed about 2.5 grams every two hours. (See, FIG. 10A). Furthermore, the body weight of the vehicle rat and administered rats with analog ARE135 gained about 19.5 grams. On the other hand, the closed ring structures evidenced a decrease in body weight gain as follows: ARE112-6 grams, ARE130-9 grams, ARE136-11 grams and ARE140-14 grams. See, FIG. 10C.

Experiment [2] deals with T1, GPR6 (Homo sapiens, UniProt P46095).
T1 construct: expressed in transfected cells; 293 cells are used elsewhere
T1 sequence (P46095 whole entry): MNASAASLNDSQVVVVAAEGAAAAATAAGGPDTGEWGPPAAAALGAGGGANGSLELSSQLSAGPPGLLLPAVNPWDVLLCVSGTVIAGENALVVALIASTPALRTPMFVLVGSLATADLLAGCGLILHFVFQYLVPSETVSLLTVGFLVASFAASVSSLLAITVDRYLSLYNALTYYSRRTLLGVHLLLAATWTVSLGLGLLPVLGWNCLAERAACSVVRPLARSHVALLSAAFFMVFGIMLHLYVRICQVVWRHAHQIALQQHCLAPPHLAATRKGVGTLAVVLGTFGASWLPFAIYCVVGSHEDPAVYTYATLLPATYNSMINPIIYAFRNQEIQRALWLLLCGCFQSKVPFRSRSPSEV
The experiment can be described thus: membrane-based cyclic AMP confirmation assay (Example 4C). Type of experiment: biochemical. Conditions: mean +/- standard deviation (number of assays in brackets); read-out: IC50 Values Cyclic AMP Assay Example 4C. From the text: Using an independent assay approach to provide confirmation of a directly identified candidate compound as set forth above, it is preferred that a confirmation assay then be utilized. In this case, the preferred confirmation assay is membrane-based cyclic AMP (cAMP) assay.
A modified Flash Plate™ Adenylyl Cyclase kit (New England Nuclear; Cat. No. SMP004A) was utilized for confirmation of candidate compounds directly identified as inverse agonists and agonists to endogenous, constitutively activated orphan GPCRs in accordance with the following protocol.
Transfected stable cells were harvested approximately three days after transfection. Membranes were prepared by homogenization of suspended cells in buffer containing 20 mM HEPES, pH 7.4 and 10 mM MgCl2. Homogenization was performed on ice using a Brinkman Polytron™ for approximately 10 seconds. The resulting homogenate was centrifuged at 20,000 rpm for 20 minutes at 4° C. The resulting pellet was then resuspended in buffer containing 20 mM HEPES, pH 7.4 and 0.1 mM EDTA, homogenized for 10 seconds, followed by centrifugation at 20,000 rpm for 20 minutes at 4° C. The resulting pellet can be stored at −80° C. until utilized. On the day of direct identification screening, the membrane pellet is slowly thawed at room temperature, resuspended in buffer containing 20 mM HEPES, pH 7.4, 100 mM NaCl and 10 mM MgCL2, to yield a final protein concentration of 0.60 mg/ml (the resuspended membranes are placed on ice until use).
Candidate compounds identified as per above (if frozen, thawed at room temperature) were added to plate wells (3 μl/well; 12 μM final assay concentration), together with 50 μl Membrane Protein (30 μg/well) and 50 μl of Assay Buffer. This admixture was then incubated for 30 minutes at room temperature, with gentle shaking.
Following the incubation, 100 μl of Detection Buffer was added to each well, followed by incubation for 2-20 hours. Plates were subsequently aspirated and then counted in a Wallac MicroBeta™ plate reader using “Prot. #31” (as per manufacturer instructions).

Experiment [3] deals with T2, GPR6:Gsα-Fusion Protein (Homo sapiens, UniProt P46095).
T2 construct: expressed in transfected cells
T2 sequence (P46095 with tags, fused parts or gaps): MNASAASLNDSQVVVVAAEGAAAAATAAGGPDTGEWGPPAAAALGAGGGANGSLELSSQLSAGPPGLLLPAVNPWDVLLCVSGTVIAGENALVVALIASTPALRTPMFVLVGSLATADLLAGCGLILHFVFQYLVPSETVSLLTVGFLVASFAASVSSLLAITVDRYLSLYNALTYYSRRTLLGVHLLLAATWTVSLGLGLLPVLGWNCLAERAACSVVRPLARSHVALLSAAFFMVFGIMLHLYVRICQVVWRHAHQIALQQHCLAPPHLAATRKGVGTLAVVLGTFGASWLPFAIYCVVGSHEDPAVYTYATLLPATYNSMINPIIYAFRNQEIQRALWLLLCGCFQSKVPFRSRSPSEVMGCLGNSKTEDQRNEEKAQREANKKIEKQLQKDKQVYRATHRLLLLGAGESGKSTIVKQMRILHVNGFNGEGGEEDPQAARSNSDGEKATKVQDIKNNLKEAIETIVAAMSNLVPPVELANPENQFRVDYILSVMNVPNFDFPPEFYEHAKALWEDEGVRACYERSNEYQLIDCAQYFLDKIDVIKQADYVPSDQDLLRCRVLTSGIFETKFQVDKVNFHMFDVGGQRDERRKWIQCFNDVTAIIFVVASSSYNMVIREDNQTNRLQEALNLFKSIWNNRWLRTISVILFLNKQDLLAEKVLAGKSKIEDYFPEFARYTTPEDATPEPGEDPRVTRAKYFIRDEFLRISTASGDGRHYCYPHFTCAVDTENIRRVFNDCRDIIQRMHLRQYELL
Put plainly: [35S]GTPγS membrane binding assay (Example 4A). Format: biochemical. The method, then:
The assay plates were then centrifuged at 400 rpm for 15 minutes at room temperature and then subsequently aspirated and counted in a scintillation counter.
Membranes expressing the GPCR6:Gsα-Fusion Protein (see Example 2) and for use in the direct identification of candidate compounds as inverse agonists, agonists or partial agonists were prepared as follows:
All materials were kept on ice throughout the procedure. Firstly, the media was aspirated from a confluent monolayer of cells, followed by rinse with 10 ml cold PBS, followed by aspiration. Thereafter, 5 ml of membrane Scrape Buffer was added to scrape cells; this was followed by transfer of cellular extract into 50 ml centrifuge tubes (centrifuged at 20,000 rpm for 17 minutes at 4° C.). Thereafter, the supernatant was aspirated and the pellet was resuspended in 30 ml Membrane Wash Buffer followed by centrifuge at 20,000 rpm for 17 minutes at 4° C. The supernatant was then aspirated and the pellet resuspended in Binding Buffer. This was then homogenized using a Brinkman polytron™ homogenizer (15-20 second bursts until the all material was in suspension). This is referred to herein as “Membrane Protein”.
Candidate compounds (Tripos, Inc., St. Louis, Mo.) were received in 96-well plates (these can be frozen at −80° C.). Membrane Protein (or membranes with expression vector excluding the GPR6:Gsα-Fusion Protein, as control), were homogenized briefly until in suspension. Protein concentration was then determined using the Bradford Protein Assay set forth above. […] Thereafter, 100 ul GDP Buffer was added to each well of a Wallac Scintistrip™ (Wallac). A 5 ul pin-tool was then used to transfer 5 ul of a candidate compound into such well (i.e., 5 ul in total assay volume of 200 ul is a 1:40 ratio such that the final screening concentration of the candidate compound is 10 uM). Again, to avoid contamination, after each transfer step the pin tool was rinsed in three reservoirs comprising water (1×), ethanol (1×) and water (2×)—excess liquid should be shaken from the tool after each rinse and dried with paper towels and kimwipes™. Thereafter, 50 ul of Membrane Protein was added to each well (a control well comprising membranes without the GPCR Fusion Protein is also utilized), and pre-incubated for 5-10 minutes at room temperature (the plates were covered with foil in that the candidate compounds obtained from Tripos are light sensitive). Thereafter, 50 ul of [^35S]GTPγS (0.6 nM) in Binding Buffer was added to each well, followed by incubation on a shaker for 60 minutes at room temperature (again, in this example, plates were covered with foil). The assay was then stopped by spinning of the plates at 4000 RPM for 15 minutes at 22° C. The plates were then aspirated with an 8 channel manifold and sealed with plastic plate covers. The plates were then read on a Wallac 1450 using setting “Prot. #37” (as per manufacturer instructions).
The initial or “primary” screen designed to directly identify, e.g., human GPR6 receptor inverse agonists, consisted of the membrane-based GTPγS binding assay of Example 4A utilizing membranes prepared from 293 stable cells. Candidate compounds directly identified as inhibiting receptor-mediated increases in GTPγS as set forth below were considered active “leads”.
It is preferred that following such direct identification, IC50 (inverse agonist) or EC50 (agonist) values be determined; those having ordinary skill in the art are credited with utilizing IC50 and EC50 assay protocols of choice. FIG. 4 provides a representative IC50 curve for compound ARE112 using the assay protocol of Example 4A.
In general terms: Binding of GTPγS marks nucleotide exchange on a G protein.

The mark [4] stands for this setting: mean +/- SD (number of assays), read-out: IC50 Values (Table E, GTP Assay of Example 4A).
Setting [5] is: mean +/- standard deviation (number of assays in brackets), read-out: IC50 Values GTP Assay Example 4A.

Where two headings read alike, the source gives them in different places.

Take `O=C(N=C1SSC2=NCCN21)c1cc2ccccc2s1` [ARE140, N-(5,6-dihydro-3H-imidazo[2,1-c]-1,2,4-dithiazol-3-ylidene)-benzothiophen-2-carboxamide]: the “Cumulative Food Intake (g) (8 hr post administration)” value in experiment [1] stood at 9.6 g. For the same compound, the “Body Weight Gain (g) (6 hr post administration)” value in experiment [1] stood at 14.6 g. In experiment [1], the “Cumulative Water Intake (g) (6 hr post administration)” value was found to be 20.0 g. Also, the “water drunk (FIG. 10B)” value in experiment [1] (100 μmol/kg oral, comparable to vehicle) is on record as “about 19 grams”. In addition, in experiment [1] (100 μmol/kg oral), the “body weight gain (FIG. 10C)” value is given as 14 grams. The values for the IC50 in experiment [2], in experiment [3] (setting [4]) and in experiment [3] (setting [5]) were 190 nM, 170 nM and 130 nM, respectively.

For the compound `O=C(N=C1SSC2=NCCN21)c1cccc(F)c1` [ARE130, N-(5,6-dihydro-3H-imidazo[2,1-c]-1,2,4-dithiazol-3-ylidene)-3-fluorobenzamide], in experiment [1], the “Cumulative Food Intake (g) (8 hr post administration)” value came to 9.1 g, the “Body Weight Gain (g) (6 hr post administration)” value was found to be 9.5 g and the “Cumulative Water Intake (g) (6 hr post administration)” value is 9.5 g. In experiment [1] (100 μmol/kg oral), the “water drunk less than the vehicle animal (FIG. 10B)” value is on record as “about 10 grams” and the “body weight gain (FIG. 10C)” value was 9 grams. Moreover, the IC50 in experiment [2] is 240 nM. Besides, in experiment [3] (setting [4]), the IC50 is 220 nM. Besides, the IC50 in experiment [3] (setting [5]) was 220 nM.

On to `Cc1cccc(C(=O)NC(=S)N2CCNC2=S)c1` [ARE125, N-(2-thioxo-imidazolidine-1-carbothioyl)-3-methylbenzamide], for which the figures for the IC50 in experiment [2] and in experiment [3] (setting [5]) were 120000 nM and 3800 nM, respectively.

For `COc1cccc(C(=O)N=C2SSC3=NCCN32)c1` [ARE124, N-(5,6-dihydro-3H-imidazo[2,1-c]-1,2,4-dithiazol-3-ylidene)-3-methoxybenzamide], the values for the IC50 in experiment [2] and in experiment [3] (setting [5]) were 400 nM and 310 nM, respectively.

Regarding `O=C(N=C1SSC2=NCCN21)c1ccon1` [ARE150, N-(5,6dihydro-3H-imidazo[2,1-c]-1,2,4-dithiazol-3-ylidene)-isoxazole-3-carboxamide], the IC50 amounted to 100 nM in experiment [2] and 330 nM in experiment [3] (setting [5]).

As to `O=C(NC(=S)N1CCNC1=S)c1ccon1` [ARE149, N-(2-thioxo-imidazolidine-1-carbothioyl)-isoxazole-3-carboxamide], the IC50 worked out at 5830 nM in experiment [2] and 2430 nM in experiment [3] (setting [5]).

Turning to `O=C(NC(=S)N1CCNC1=S)c1cc2ccccc2s1` [ARE139, N-(2-thioxo-imidazolidine-1-carbothioyl)-benzothiophen-2-carboxamide], the IC50 in experiment [2] was found to be 4520 nM; in experiment [3] (setting [5]), 260 nM.

Turning to `COc1cccc(C(=O)NC(=S)N2CCNC2=S)c1` [ARE123, N-(2-thioxo-imidazolidine-1-carbothioyl)-3-methoxybenzamide], the IC50 in experiment [2] is 51000 nM; in experiment [3] (setting [5]) it was 56000 nM.

Turning to `O=C(NC(=S)N1CCNC1=S)c1ccc(F)cc1F` [ARE133, N-(2-thioxo-imidazolidine-1-carbothioyl)-2,4-difluorobenzamide], the figures for the IC50 in experiment [2] and in experiment [3] (setting [5]) were 170 nM and 110 nM, respectively.

Regarding `O=C(NC(=S)N1CCNC1=S)c1ccc(C(F)(F)F)cc1` [ARE115, N-(2-thioxo-imidazolidine-1-carbothioyl)-4-trifluoromethylbenzamide], the IC50 in experiment [2] is 3650 nM; in experiment [3] (setting [5]), 1570 nM.

Regarding `O=C(NC(=S)N1CCNC1=S)c1cccnc1` [ARE155, N-(2-thioxo-imidazolidine-1-carbothioyl)-pyridine-3-carboxamide], the IC50 in experiment [2] stood at 850 nM; in experiment [3] (setting [5]), 6560 nM.

For the compound `O=C(N=C1SSC2=NCCN21)c1ccco1` [ARE144, N-(5,6dihydro-3H-imidazo[2,1-c]-1,2,4-dithiazol-3-ylidene)furan-2-carboxamide], the IC50 in experiment [2] was 110 nM; in experiment [3] (setting [5]), 250 nM.

In the case of `O=C(N=C1SSC2=NCCN21)c1cccnc1` [ARE156, N-(5,6-dihydro-3H-imidazo[2,1-c]-1,2,4-dithiazol-3-ylidene)-pyridine-3-carboxamide], the IC50 in experiment [2] stood at 133 nM; in experiment [3] (setting [5]) it was 670 nM.

On to `O=C(NC(=S)N1CCNC1=S)c1cccs1` [ARE111, N-(2-thioxo-imidazolidine-1-carbothioyl)-thiophene-2-carboxamide], for which the results for the IC50 in experiment [2] and in experiment [3] (setting [5]) were 1960 nM and 2790 nM, respectively.

As usually defined, the IC50 is the point on the concentration scale where inhibition reaches its midpoint.

(Values after US6420563B1, “Small molecule modulators of G protein-coupled receptor six” (Arena Pharmaceuticals, Inc., priority 1998, dated 2002).)
